The values below come from patent publication US11440888B2, “Microbiocidal quinoline carboxamide derivatives” (SYNGENTA CROP PROTECTION AG, priority 2018, dated 2022).

The melting point is the temperature, or range, at which the solid turns liquid. `Cc1c(NC(=O)C(Cl)(Cc2ccccc2)CC(F)(F)F)cnc2c(F)cccc12` (stereo not drawn) [E.01, 2-benzyl-2-chloro-4,4,4-trifluoro-N-(8-fluoro-4-methyl-3-quinolyl)butanamide] came in with a melting point of 179 to 181 °C.
`O=C(Nc1cnc2c(F)cccc2c1)C(Cl)(Cc1ccccc1)CC(F)(F)F` (stereo not drawn) [E.06, 2-benzyl-2-chloro-4,4,4-trifluoro-N-(8-fluoro-3-quinolyl)butanamide] showed a melting point of 106 to 108 °C.
Under `Cc1c(NC(=O)C(Cl)(Cc2ccccc2)CC(C)C)cnc2c(F)cccc12` (stereo not drawn) [E.05, 2-benzyl-2-chloro-N-(8-fluoro-4-methyl-3-quinolyl)-4-methyl-pentanamide] stands 140 to 141 °C.
